The numbers were not newly measured in patent publication US6815424B2, “Intranasal administration of polypeptides in powdered form” (Pfizer Corporation, priority 1987, dated 2004), which cites them from elsewhere.

For the data set the following is noted: in vivo, inhaled or intranasal.

For the molecule `CC(C)C[C@H](NC(=O)[C@@H](Cc1ccc2ccccc2c1)NC(=O)[C@H](Cc1ccc(O)cc1)NC(=O)[C@H](CO)NC(=O)[C@H](Cc1c[nH]c2ccccc12)NC(=O)[C@H](Cc1c[nH]cn1)NC(=O)[C@@H]1CCC(=O)N1)C(=O)N[C@@H](CCCNC(=N)N)C(=O)N1CCC[C@H]1C(=O)NCC(N)=O` [nafarelin acetate, L-pyroglutamyl-L-histidyl-L-tryptophyl-L-seryl-L-tyrosyl-D-3-(2-naphthyl)alanyl-L-leucyl-L-arginyl-L-prolyl-glycinamide], the “bioavailability compared to injection” value is “about 2%”.
